Assay results as given in the supplement of paper PMC6315032.

Assays:
Experiment in all cases: apparent dissociation constant (pKDapp, Kinobeads competition, Cheng-Prusoff corrected) (-log10 M); higher = tighter binding
[1] = molecular target: MYLK (UniProt Q15746); conditions: affinity matrix / lysate: Kinobeads, mixed HEK293/K-562/placenta lysate
[2] = molecular target: PRKAA1 (UniProt Q13131); conditions: affinity matrix / lysate: Kinobeads, mixed HEK293/K-562/placenta lysate
[3] = molecular target: PRKCD (UniProt Q05655); conditions: affinity matrix / lysate: Kinobeads, mixed HEK293/K-562/placenta lysate
[4] = molecular target: CSK (UniProt P41240); conditions: affinity matrix / lysate: Kinobeads, mixed HEK293/K-562/placenta lysate
[5] = molecular target: STK4 (UniProt Q13043); conditions: affinity matrix / lysate: Kinobeads, mixed HEK293/K-562/placenta lysate
Chain of STK4 (Q13043 whole entry): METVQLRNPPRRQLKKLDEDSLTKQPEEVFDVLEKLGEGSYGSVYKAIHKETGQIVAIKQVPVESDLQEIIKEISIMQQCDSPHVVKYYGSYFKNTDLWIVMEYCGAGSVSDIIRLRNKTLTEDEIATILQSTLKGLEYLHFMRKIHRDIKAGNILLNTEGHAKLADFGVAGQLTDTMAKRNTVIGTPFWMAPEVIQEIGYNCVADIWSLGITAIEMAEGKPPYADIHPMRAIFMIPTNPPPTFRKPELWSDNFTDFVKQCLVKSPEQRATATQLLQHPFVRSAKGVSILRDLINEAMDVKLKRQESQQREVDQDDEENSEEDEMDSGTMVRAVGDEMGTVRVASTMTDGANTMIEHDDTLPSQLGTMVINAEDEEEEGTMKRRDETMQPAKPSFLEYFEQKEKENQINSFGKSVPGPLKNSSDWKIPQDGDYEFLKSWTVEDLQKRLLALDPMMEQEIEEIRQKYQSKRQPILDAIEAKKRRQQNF

[6] = molecular target: CDK5 (UniProt Q00535); conditions: affinity matrix / lysate: Kinobeads, mixed HEK293/K-562/placenta lysate
Chain of CDK5 (Q00535 whole entry, looked up): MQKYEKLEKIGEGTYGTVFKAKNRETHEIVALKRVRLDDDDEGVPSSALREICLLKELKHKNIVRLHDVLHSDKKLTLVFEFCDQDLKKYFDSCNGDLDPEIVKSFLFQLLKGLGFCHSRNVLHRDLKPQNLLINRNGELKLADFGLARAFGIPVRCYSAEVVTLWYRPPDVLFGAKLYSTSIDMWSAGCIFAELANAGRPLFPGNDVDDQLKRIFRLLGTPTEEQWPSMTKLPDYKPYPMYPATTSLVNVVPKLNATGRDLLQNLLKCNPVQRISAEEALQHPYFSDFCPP

[7] = molecular target: CAMKK2 (UniProt Q96RR4); conditions: affinity matrix / lysate: Kinobeads, mixed HEK293/K-562/placenta lysate
[8] = molecular target: TNK1 (UniProt Q13470); conditions: affinity matrix / lysate: Kinobeads, mixed HEK293/K-562/placenta lysate
[9] = molecular target: STK11 (UniProt Q15831); conditions: affinity matrix / lysate: Kinobeads, mixed HEK293/K-562/placenta lysate
[10] = molecular target: STK16 (UniProt O75716); conditions: affinity matrix / lysate: Kinobeads, mixed HEK293/K-562/placenta lysate
[11] = molecular target: CRKRS (UniProt Q9NYV4); conditions: affinity matrix / lysate: Kinobeads, mixed HEK293/K-562/placenta lysate
Chain of CRKRS (Q9NYV4 whole entry, looked up): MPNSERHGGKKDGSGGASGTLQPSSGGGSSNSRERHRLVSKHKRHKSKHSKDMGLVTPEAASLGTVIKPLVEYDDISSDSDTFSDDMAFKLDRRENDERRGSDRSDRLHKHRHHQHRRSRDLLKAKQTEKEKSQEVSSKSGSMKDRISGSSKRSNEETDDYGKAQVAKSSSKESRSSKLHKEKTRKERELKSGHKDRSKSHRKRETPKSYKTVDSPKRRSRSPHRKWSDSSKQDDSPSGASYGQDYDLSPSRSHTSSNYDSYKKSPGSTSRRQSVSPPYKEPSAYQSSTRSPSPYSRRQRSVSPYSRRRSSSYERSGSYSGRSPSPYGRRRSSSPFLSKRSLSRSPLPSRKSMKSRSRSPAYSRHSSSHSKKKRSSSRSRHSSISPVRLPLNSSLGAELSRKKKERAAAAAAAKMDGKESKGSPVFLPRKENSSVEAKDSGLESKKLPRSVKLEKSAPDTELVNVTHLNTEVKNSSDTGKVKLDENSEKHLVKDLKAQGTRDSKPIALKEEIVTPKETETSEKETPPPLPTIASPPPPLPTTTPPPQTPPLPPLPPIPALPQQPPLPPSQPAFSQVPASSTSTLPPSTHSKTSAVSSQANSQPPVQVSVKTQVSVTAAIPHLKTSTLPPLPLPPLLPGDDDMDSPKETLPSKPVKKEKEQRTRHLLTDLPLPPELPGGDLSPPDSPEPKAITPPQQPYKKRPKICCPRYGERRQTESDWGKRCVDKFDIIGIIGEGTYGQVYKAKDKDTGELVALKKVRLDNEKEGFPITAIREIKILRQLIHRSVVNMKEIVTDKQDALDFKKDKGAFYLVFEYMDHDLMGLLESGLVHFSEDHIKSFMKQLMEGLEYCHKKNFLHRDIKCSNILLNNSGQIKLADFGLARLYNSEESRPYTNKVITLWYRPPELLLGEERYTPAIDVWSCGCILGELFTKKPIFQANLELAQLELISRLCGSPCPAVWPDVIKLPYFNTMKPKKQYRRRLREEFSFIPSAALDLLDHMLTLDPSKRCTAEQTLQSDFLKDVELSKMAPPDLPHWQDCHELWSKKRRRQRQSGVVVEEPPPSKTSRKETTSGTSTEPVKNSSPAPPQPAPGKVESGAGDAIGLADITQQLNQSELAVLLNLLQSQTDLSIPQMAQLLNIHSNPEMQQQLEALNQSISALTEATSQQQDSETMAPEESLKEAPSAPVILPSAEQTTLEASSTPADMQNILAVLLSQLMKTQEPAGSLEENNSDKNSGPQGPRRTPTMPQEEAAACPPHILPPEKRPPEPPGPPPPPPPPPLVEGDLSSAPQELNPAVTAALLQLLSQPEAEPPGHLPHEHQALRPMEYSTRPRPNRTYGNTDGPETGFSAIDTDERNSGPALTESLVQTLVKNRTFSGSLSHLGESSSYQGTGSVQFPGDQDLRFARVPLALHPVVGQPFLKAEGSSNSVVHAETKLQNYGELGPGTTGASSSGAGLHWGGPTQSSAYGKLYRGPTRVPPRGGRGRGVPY

[12] = molecular target: NEK9 (UniProt Q8TD19); conditions: affinity matrix / lysate: Kinobeads, mixed HEK293/K-562/placenta lysate
[13] = molecular target: ICK (UniProt Q9UPZ9); conditions: affinity matrix / lysate: Kinobeads, mixed HEK293/K-562/placenta lysate
[14] = molecular target: ADCK1 (UniProt Q86TW2); conditions: affinity matrix / lysate: Kinobeads, mixed HEK293/K-562/placenta lysate
[15] = molecular target: FGFR3 (UniProt P22607); conditions: affinity matrix / lysate: Kinobeads, mixed HEK293/K-562/placenta lysate
[16] = molecular target: OXSR1 (UniProt O95747); conditions: affinity matrix / lysate: Kinobeads, mixed HEK293/K-562/placenta lysate
[17] = molecular target: CDC2L5 (UniProt Q14004); conditions: affinity matrix / lysate: Kinobeads, mixed HEK293/K-562/placenta lysate
[18] = molecular target: EPHB4 (UniProt P54760); conditions: affinity matrix / lysate: Kinobeads, mixed HEK293/K-562/placenta lysate
[19] = molecular target: EIF2AK1 (UniProt Q9BQI3); conditions: affinity matrix / lysate: Kinobeads, mixed HEK293/K-562/placenta lysate
[20] = molecular target: IKBKB (UniProt O14920); conditions: affinity matrix / lysate: Kinobeads, mixed HEK293/K-562/placenta lysate
[21] = molecular target: PRKD2 (UniProt Q9BZL6); conditions: affinity matrix / lysate: Kinobeads, mixed HEK293/K-562/placenta lysate
[22] = molecular target: NLK (UniProt Q9UBE8); conditions: affinity matrix / lysate: Kinobeads, mixed HEK293/K-562/placenta lysate
[23] = molecular target: EPHB3 (UniProt P54753); conditions: affinity matrix / lysate: Kinobeads, mixed HEK293/K-562/placenta lysate
[24] = molecular target: PIK3R4 (UniProt Q99570); conditions: affinity matrix / lysate: Lipid Kinobeads, mixed HeLa/Jurkat/K-562 lysate
[25] = molecular target: PIK3C2A (UniProt O00443); conditions: affinity matrix / lysate: Lipid Kinobeads, mixed HeLa/Jurkat/K-562 lysate
[26] = molecular target: DDR1 (UniProt Q08345); conditions: affinity matrix / lysate: Kinobeads, mixed HEK293/K-562/placenta lysate
Chain of DDR1 (Q08345 whole entry): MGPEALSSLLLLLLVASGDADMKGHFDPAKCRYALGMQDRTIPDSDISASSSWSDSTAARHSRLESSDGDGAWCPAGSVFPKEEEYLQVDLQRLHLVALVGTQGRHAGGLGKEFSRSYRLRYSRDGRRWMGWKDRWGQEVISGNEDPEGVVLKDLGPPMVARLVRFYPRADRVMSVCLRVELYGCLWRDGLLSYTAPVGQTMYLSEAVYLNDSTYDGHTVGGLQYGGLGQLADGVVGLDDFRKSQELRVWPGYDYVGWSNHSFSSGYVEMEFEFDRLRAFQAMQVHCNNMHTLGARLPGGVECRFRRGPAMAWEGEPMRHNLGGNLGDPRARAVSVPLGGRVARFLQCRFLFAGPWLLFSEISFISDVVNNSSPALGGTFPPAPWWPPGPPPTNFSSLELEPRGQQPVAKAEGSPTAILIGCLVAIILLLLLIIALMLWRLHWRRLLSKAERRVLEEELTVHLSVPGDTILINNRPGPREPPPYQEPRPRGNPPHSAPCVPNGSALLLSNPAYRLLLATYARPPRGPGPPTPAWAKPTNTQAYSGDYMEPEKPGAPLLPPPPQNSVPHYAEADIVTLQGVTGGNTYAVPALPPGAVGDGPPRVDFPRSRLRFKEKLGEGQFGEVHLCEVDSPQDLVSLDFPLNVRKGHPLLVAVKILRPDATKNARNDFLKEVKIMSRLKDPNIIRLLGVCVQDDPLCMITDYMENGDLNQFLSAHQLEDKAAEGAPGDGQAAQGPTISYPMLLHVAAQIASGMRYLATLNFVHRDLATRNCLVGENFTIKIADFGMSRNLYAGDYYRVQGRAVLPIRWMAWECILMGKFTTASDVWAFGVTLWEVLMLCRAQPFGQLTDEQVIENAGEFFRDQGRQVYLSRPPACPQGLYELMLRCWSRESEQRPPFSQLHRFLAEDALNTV

[27] = molecular target: PRKCZ (UniProt Q05513); conditions: affinity matrix / lysate: Kinobeads, mixed HEK293/K-562/placenta lysate
[28] = molecular target: ACVR1 (UniProt Q04771); conditions: affinity matrix / lysate: Kinobeads, mixed HEK293/K-562/placenta lysate
Chain of ACVR1 (Q04771 whole entry): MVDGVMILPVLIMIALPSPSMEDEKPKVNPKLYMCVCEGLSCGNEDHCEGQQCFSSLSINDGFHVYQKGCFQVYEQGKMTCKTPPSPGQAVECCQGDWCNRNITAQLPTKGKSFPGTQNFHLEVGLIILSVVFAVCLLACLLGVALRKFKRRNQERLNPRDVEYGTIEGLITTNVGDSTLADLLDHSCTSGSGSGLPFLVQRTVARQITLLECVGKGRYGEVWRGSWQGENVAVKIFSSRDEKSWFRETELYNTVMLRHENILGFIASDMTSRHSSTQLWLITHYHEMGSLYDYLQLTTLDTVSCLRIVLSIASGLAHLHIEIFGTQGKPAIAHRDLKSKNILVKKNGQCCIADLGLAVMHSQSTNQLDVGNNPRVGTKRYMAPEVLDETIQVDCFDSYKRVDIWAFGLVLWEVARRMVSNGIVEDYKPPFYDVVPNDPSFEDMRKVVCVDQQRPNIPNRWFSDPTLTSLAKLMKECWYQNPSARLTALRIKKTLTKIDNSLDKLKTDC

[29] = molecular target: CAMK2D (UniProt Q13557); conditions: affinity matrix / lysate: Kinobeads, mixed HEK293/K-562/placenta lysate
[30] = molecular target: RIPK2 (UniProt O43353); conditions: affinity matrix / lysate: Kinobeads, mixed HEK293/K-562/placenta lysate
Chain of RIPK2 (O43353 whole entry): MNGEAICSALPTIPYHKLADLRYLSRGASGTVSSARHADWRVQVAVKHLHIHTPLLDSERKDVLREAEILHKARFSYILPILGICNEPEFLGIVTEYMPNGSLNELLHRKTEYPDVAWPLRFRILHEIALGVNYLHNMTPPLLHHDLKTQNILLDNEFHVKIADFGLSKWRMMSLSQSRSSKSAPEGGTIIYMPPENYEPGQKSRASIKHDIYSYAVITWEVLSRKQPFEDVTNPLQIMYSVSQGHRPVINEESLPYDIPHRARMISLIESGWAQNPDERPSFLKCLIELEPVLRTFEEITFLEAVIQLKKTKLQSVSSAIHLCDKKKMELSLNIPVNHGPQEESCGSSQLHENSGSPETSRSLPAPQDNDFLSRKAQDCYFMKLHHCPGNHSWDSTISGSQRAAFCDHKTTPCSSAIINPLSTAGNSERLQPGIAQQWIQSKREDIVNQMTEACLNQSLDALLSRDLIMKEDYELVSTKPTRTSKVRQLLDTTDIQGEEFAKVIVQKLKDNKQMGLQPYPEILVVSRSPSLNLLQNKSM

[31] = molecular target: MYLK3 (UniProt Q32MK0); conditions: affinity matrix / lysate: Kinobeads, mixed HEK293/K-562/placenta lysate
[32] = molecular target: ARAF (UniProt P10398); conditions: affinity matrix / lysate: Kinobeads, mixed HEK293/K-562/placenta lysate
Chain of ARAF (P10398 whole entry): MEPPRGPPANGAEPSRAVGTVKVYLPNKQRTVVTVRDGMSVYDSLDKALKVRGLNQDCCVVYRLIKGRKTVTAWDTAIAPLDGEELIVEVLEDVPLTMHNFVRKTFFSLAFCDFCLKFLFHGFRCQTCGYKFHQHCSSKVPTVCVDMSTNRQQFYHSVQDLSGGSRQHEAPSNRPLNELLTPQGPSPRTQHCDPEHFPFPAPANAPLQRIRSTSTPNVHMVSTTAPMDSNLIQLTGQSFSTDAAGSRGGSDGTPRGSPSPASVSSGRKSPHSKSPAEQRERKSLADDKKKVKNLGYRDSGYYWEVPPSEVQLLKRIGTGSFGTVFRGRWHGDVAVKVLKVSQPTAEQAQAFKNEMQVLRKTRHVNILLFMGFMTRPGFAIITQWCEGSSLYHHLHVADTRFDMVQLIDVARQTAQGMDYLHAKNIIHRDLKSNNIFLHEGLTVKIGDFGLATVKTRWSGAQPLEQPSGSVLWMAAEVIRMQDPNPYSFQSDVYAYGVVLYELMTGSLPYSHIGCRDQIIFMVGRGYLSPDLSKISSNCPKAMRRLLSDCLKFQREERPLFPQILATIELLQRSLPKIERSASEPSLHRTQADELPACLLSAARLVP

[33] = molecular target: PIP4K2B (UniProt P78356); conditions: affinity matrix / lysate: Kinobeads, mixed HEK293/K-562/placenta lysate

apparent dissociation constant (-log10 M) [1]	apparent dissociation constant (-log10 M) [2]	apparent dissociation constant (-log10 M) [3]	apparent dissociation constant (-log10 M) [4]	apparent dissociation constant (-log10 M) [5]	apparent dissociation constant (-log10 M) [6]	apparent dissociation constant (-log10 M) [7]	apparent dissociation constant (-log10 M) [8]	apparent dissociation constant (-log10 M) [9]	apparent dissociation constant (-log10 M) [10]	apparent dissociation constant (-log10 M) [11]	apparent dissociation constant (-log10 M) [13]	apparent dissociation constant (-log10 M) [14]	apparent dissociation constant (-log10 M) [15]	apparent dissociation constant (-log10 M) [16]	apparent dissociation constant (-log10 M) [17]	apparent dissociation constant (-log10 M) [18]	apparent dissociation constant (-log10 M) [19]	apparent dissociation constant (-log10 M) [20]	apparent dissociation constant (-log10 M) [21]	apparent dissociation constant (-log10 M) [22]	apparent dissociation constant (-log10 M) [23]	apparent dissociation constant (-log10 M) [24]	apparent dissociation constant (-log10 M) [25]	apparent dissociation constant (-log10 M) [26]	apparent dissociation constant (-log10 M) [27]	apparent dissociation constant (-log10 M) [28]	apparent dissociation constant (-log10 M) [29]	apparent dissociation constant (-log10 M) [30]	apparent dissociation constant (-log10 M) [31]	apparent dissociation constant (-log10 M) [32]	apparent dissociation constant (-log10 M) [33]	Compound	apparent dissociation constant (-log10 M) [12]
< 6	< 6	< 6	< 6	< 6	< 6	< 6	< 6	< 6	< 6	< 6	< 6	< 6	< 6	< 6	< 6	< 6	< 6	< 6	< 6	< 6	< 6	< 6	< 6	< 6	< 6	< 6	< 6	< 6	< 6	< 6	< 6	CCNC(=O)Nc1ccc(-c2nc(N3CCOC[C@@H]3C)c3c(n2)C(C)(C)S(=O)(=O)C3)cc1 [CZ415]	< 6
< 6	< 6	< 6	< 6	< 6	< 6	< 6	< 6	< 6	< 6	< 6	< 6	< 6	< 6	< 6	< 6	< 6	< 6	< 6	< 6	< 6	< 6	< 6	< 6	< 6	< 6	< 6	< 6	< 6	< 6	< 6	< 6	COc1ccc(-c2ccc3c(N4CCOC[C@@H]4C)nc(N4CCOC[C@@H]4C)nc3n2)cc1CO [AZD8055]	< 6
